# According to US9249125B2, “Pyrazole derivatives as p38 MAP inhibitors” (RESPIVERT LIMITED, priority 2012, dated 2016):
# Columns and labels:
# [1] = test system: LPS-induced IL-8 release in d-U937 cells; experiment: LPS-induced IL-8 release in d-U937 cells; type: cell-based; details: Homo sapiens, dU937, read-out: LPS Induced Release of Cytokine in d-937 Cells IL-8 IC50
# Method in brief: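 PMA (100 ng/mL, 48–72 hr)-differentiated U937; cpd 2 hr pre-inc; LPS 0.1 μg/mL (E. coli O111:B4) 4 hr. Supernatant TNFα/IL-8 by sandwich ELISA. IL-8 inhibition per concentration vs vehicle; REC50 from curve fit.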
# GSK3α = GSK3α (Homo sapiens (Human), UniProt P49840); experiment: GSK 3α enzyme inhibition (FRET, Z-LYTE); type: biochemical
# Chain of GSK3α (P49840 whole entry): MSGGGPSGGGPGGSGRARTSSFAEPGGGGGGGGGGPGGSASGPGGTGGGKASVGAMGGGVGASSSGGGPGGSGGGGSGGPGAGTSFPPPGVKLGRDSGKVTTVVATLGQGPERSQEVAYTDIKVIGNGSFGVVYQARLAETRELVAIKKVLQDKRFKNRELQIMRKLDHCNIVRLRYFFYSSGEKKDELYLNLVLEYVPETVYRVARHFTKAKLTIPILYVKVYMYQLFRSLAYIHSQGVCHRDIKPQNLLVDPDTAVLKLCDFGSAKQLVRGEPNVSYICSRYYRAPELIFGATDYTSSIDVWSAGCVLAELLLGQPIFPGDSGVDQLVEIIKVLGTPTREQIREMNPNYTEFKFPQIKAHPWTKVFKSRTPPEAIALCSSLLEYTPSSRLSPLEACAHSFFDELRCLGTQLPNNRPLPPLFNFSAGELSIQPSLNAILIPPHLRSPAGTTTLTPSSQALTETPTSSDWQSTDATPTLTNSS
# Method in brief: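 GSK3α (500 ng/mL stock) was preincubated 2 hr at RT with compound (4 to 0.004 μg/mL stocks), then FRET peptide (8 μM stock) and ATP (40 μM stock) added for 1 hr. Protease development for 1 hr cleaved unphosphorylated peptide; coumarin/fluorescein emission ratio reported phosphorylation.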
# d-U937 cells = experiment: Cell viability: MTT assay; type: cell-based, human; details: 1 μg/mL
# Method in brief: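 Differentiated U937 cells were exposed to compound at 1 or 10 μg/mL either 4 h in 5% FCS RPMI1640 or 24 h in 10% FCS RPMI1640, then given MTT for 1 h, DMSO-solubilised and read at 550 nm. Percent viability loss versus 0.5% DMSO vehicle; apparent gains appear negative.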
# [2] = test system: LPS-induced TNFα release in d-U937 cells; experiment: LPS-induced TNFα release in d-U937 cells; type: cell-based; details: Homo sapiens, dU937, relative to 10 μg/mL BIRB796, read-out: LPS Induced Release of Cytokine in d-937 Cells TNFα REC50
# Method in brief: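 First, U937 monocytes undergo PMA treatment (100 ng/mL) for 48 to 72 hr to become macrophage-type. Next, compound at final concentrations is added for 2 hr, followed by LPS at 0.1 μg/mL for 4 hr. Finally, cytokines in the supernatant are quantified by ELISA against vehicle-treated cells.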
# cSrc = cSrc (Homo sapiens (Human), UniProt P12931); experiment: c-Src enzyme inhibition (FRET, Z-LYTE); type: biochemical
# Chain of cSrc (P12931 whole entry, looked up): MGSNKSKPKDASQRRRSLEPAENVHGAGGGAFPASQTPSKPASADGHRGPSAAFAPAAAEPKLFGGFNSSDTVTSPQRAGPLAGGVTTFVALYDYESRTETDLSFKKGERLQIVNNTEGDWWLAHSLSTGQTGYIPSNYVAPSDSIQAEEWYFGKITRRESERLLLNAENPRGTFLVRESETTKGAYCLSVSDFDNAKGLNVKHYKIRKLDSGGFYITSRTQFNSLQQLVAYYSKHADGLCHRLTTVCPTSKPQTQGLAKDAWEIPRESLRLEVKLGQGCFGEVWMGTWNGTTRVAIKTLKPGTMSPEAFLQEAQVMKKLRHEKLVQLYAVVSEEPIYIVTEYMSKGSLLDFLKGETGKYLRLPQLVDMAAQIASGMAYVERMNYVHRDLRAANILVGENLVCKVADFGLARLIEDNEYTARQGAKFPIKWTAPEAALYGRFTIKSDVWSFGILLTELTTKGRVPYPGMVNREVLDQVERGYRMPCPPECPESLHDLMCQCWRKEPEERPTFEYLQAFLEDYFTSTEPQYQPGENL
# Method in brief: (§1)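 Z-LYTE FRET kinase assay: enzyme (3000 or 2000 ng/mL stock, respectively) preincubated 2 h at RT with compound (4–0.004 μg/mL stocks), then FRET peptide plus ATP (800 μM stock for c-Src, 60 μM for Syk) added for 1 h. Protease development 1 h; phosphorylation from coumarin/fluorescein emission ratio.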
# Syk = Syk (Homo sapiens (Human), UniProt P43405); experiment: Syk enzyme inhibition (FRET, Z-LYTE); type: biochemical
# Method in brief: as §1
# p38 MAPKα = p38 MAPKα (Homo sapiens (Human), UniProt Q16539); experiment: p38 MAPKα enzyme inhibition (FRET, Z-LYTE); type: biochemical
# Chain of p38 MAPKα (Q16539 whole entry): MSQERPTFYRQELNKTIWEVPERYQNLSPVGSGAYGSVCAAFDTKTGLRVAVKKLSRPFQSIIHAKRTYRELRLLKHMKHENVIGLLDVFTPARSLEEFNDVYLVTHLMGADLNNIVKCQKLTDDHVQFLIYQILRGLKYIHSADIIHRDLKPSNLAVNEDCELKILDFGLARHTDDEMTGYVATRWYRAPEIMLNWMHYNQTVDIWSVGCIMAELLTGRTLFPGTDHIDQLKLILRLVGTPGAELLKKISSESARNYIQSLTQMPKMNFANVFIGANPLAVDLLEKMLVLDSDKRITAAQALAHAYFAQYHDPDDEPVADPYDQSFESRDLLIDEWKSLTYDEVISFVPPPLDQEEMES
# [3] = test system: Poly I:C-induced ICAM-1 expression in BEAS2B cells; experiment: Poly I:C-induced ICAM-1 expression in BEAS2B cells; type: cell-based; details: Homo sapiens, BEAS-2B, read-out: Poly IC induced ICAM1 in BEAS2B IC50
# Method in brief: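 BEAS2B human bronchial epithelial cells pre-incubated with compound for 2 hr, then transfected with 1 μg/mL poly I:C plus Oligofectamine. At 18 hr, surface ICAM-1 measured by cell-based ELISA (HRP, OD450–655). Signal corrected for cell number by crystal violet OD595.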
# HRV16 = HRV16 induced CPE in MRC5 cells; type: cell-based, human rhinovirus; details: for HRV induced CPE in MRC5 Cells % Inhibition Observed: screened at concentrations up to 0.32 ng/mL
# Description: The supernatants are aspirated, and then fresh media added followed by incubation for 4 days. Where appropriate, cells are pre-incubated with compound or DMSO for 2 hr, and the compounds and DMSO added again after washout of the virus.
# Supernatants are aspirated and incubated with methylene blue solution (100 μL, 2% formaldehyde, 10% methanol and 0.175% Methylene Blue) for 2 hr at RT. […] The percentage inhibition for each well is calculated. The IC50 value is calculated from the concentration-response curve generated by the serial dilutions of the test compounds.
# [4] = test system: LPS-induced airways neutrophilia in mice; experiment: LPS-induced neutrophil accumulation in mice; type: in vivo; details: Test Substance at 0.2 mg/mL, intra tracheal, dosed 8 hr pre-LPS challenge
# Description: Non-fasted Balb/c mice are dosed by the intra tracheal route with either vehicle, or the test substance at the indicated times (within the range 2-8 hr) before stimulation of the inflammatory response by application of an LPS challenge. At T=0, mice are placed into an exposure chamber and exposed to LPS (7.0 mL, 0.5 mg/mL solution in PBS) for 30 min). After a further 8 hr the animals are anesthetized, their tracheas cannulated and BALF extracted by infusing and then withdrawing from their lungs 1.0 mL of PBS via the tracheal catheter. Total and differential white cell counts in the BALF samples are measured using a Neubaur haemocytometer. Cytospin smears of the BALF samples are prepared by centrifugation at 200 rpm for 5 min at RT and stained using a DiffQuik stain system (Dade Behring). Cells are counted using oil immersion microscopy. Data for neutrophil numbers in BAL are shown as mean±S.E.M. (standard error of the mean). The percentage inhibition of neutrophil accumulation is calculated for each treatment relative to vehicle treatment.
IC50 [1],IC50 (GSK3α),EC50 [2],IC50 (cSrc),IC50 (Syk),IC50 (p38 MAPKα),SMILES,MTT Assay Cell viability at time point in d-U937 cells 4 h (d-U937 cells),MTT Assay Cell viability at time point in d-U937 cells 24 h (d-U937 cells),IC50 [3],HRV induced CPE in MRC5 Cells % Inhibition Observed (HRV16),% Inhibition of neutrophil accumulation in BAL [4],Neutrophil numbers in BAL (+/−SEM) [4],"IC50 (HRV16; Human rhinovirus sp., HRV16, MRC5, read-out: HRV induced CPE in MRC5 Cells IC50)"
1.6 nM,1420 nM,1.6 nM,< 1 nM,7 nM,22 nM,"CC(C)(C)c1cc(NC(=O)Nc2ccc(Oc3ccnc(Nc4ccc5[nH]ncc5c4)n3)c3ccccc23)n(-c2ccc(OCCN3CCOCC3)nc2)n1 [Example 15, 1-(4-((2-((1H-Indazol-5-yl)amino)pyrimidin-4-yl)oxy)naphthalen-1-yl)-3-(3-(tert-butyl)-1-(6-(2-morpholinoethoxy)pyridin-3-yl)-1H-pyrazol-5-yl)urea]","−ve (−ve and +ve indicate that the value is below and above respectively, the no significant effect threshold, defined as 30% inhibition at 1 μg/mL at the time point indicated.)","−ve (−ve and +ve indicate that the value is below and above respectively, the no significant effect threshold, defined as 30% inhibition at 1 μg/mL at the time point indicated.)",2.1 nM,56%,,,
1.4 nM,> 1530 nM,1.7 nM,5 nM,5 nM,67 nM,"COc1ccc(-n2nc(C(C)(C)C)cc2NC(=O)Nc2ccc(Oc3ccnc(Nc4cc(C)c5[nH]ncc5c4)n3)c3ccccc23)cc1 [Example 42, 1-(3-(tert-butyl)-1-(4-methoxyphenyl)-1H-pyrazol-5-yl)-3-(4-((2-((7-methyl-1H-indazol-5-yl)amino)pyrimidin-4-yl)oxy)naphthalen-1-yl)urea]","−ve (−ve and +ve indicate that the value is below and above respectively, the no significant effect threshold, defined as 30% inhibition at 1 μg/mL at the time point indicated.)","+ve (−ve and +ve indicate that the value is below and above respectively, the no significant effect threshold, defined as 30% inhibition at 1 μg/mL at the time point indicated.)",1.4 nM,,50%,8.5 ± 1.5 ×10^5/mL,
24.8 nM,1980 nM,8.7 nM,7 nM,9 nM,11 nM,"CC(C)(C)c1cc(NC(=O)Nc2ccc(Oc3ccnc(Nc4ccc5[nH]ncc5c4)n3)c3ccccc23)n(-c2cccc(OCCN3CCOCC3)c2)n1 [Example 54, 1-(4-((2-((1H-indazol-5-yl)amino)pyrimidin-4-yl)oxy)naphthalen-1-yl)-3-(3-(tert-butyl)-1-(3-(2-morpholinoethoxy)phenyl)-1H-pyrazol-5-yl)urea]","−ve (−ve and +ve indicate that the value is below and above respectively, the no significant effect threshold, defined as 30% inhibition at 1 μg/mL at the time point indicated.)","−ve (−ve and +ve indicate that the value is below and above respectively, the no significant effect threshold, defined as 30% inhibition at 1 μg/mL at the time point indicated.)",10.3 nM,,,,0.4 nM
153 nM,2430 nM,18.8 nM,3 nM,10 nM,32 nM,"CC(C)(C)c1cc(NC(=O)Nc2ccc(Oc3ccnc(Nc4ccc5[nH]ncc5c4)n3)c3ccccc23)n(-c2ccc(=O)n(CCN3CCOCC3)c2)n1 [Example 88, 1-(4-((2-((1H-indazol-5-yl)amino)pyrimidin-4-yl)oxy)naphthalen-1-yl)-3-(3-(tert-butyl)-1-(1-(2-morpholinoethyl)-6-oxo-1,6-dihydropyridin-3-yl)-1H-pyrazol-5-yl)urea]","−ve (−ve and +ve indicate that the value is below and above respectively, the no significant effect threshold, defined as 30% inhibition at 1 μg/mL at the time point indicated.)","−ve (−ve and +ve indicate that the value is below and above respectively, the no significant effect threshold, defined as 30% inhibition at 1 μg/mL at the time point indicated.)",35.9 nM,75%,,,

# Further lines, the molecule ahead of its results:
SMILES,IC50 [1],IC50 (GSK3α),EC50 [2],IC50 (cSrc),IC50 (Syk),IC50 (p38 MAPKα),MTT Assay Cell viability at time point in d-U937 cells 4 h (d-U937 cells),MTT Assay Cell viability at time point in d-U937 cells 24 h (d-U937 cells),IC50 [3],HRV induced CPE in MRC5 Cells % Inhibition Observed (HRV16),% Inhibition of neutrophil accumulation in BAL [4],Neutrophil numbers in BAL (+/−SEM) [4],"IC50 (HRV16; Human rhinovirus sp., HRV16, MRC5, read-out: HRV induced CPE in MRC5 Cells IC50)"
"Cc1ccc(-n2nc(C(C)(C)C)cc2NC(=O)Nc2ccc(Oc3ccnc(Nc4ccc5c(c4)NC(=O)C5)n3)c3ccccc23)cc1 [Example 2, 1-(3-(tert-Butyl)-1-(p-tolyl)-1H-pyrazol-5-yl)-3-(4-((2-((2-oxoindolin-6-yl)amino)pyrimidin-4-yl)oxy)naphthalen-1-yl)urea]",1.7 nM,> 15600 nM,1.4 nM,4 nM,18 nM,93 nM,"−ve (−ve and +ve indicate that the value is below and above respectively, the no significant effect threshold, defined as 30% inhibition at 1 μg/mL at the time point indicated.)","−ve (−ve and +ve indicate that the value is below and above respectively, the no significant effect threshold, defined as 30% inhibition at 1 μg/mL at the time point indicated.)",1.4 nM,89%,,,
"Cc1ccc(-n2nc(C(C)(C)C)cc2NC(=O)Nc2ccc(Oc3ccnc(Nc4ccc5onc(N)c5c4)n3)c3ccccc23)cc1 [Example 5, 1-(4-((2-((3-Aminobenzo[d]isoxazol-5-yl)amino)pyrimidin-4-yl)oxy)naphthalen-1-yl)-3-(3-(tert-butyl)-1-(p-tolyl)-1H-pyrazol-5-yl)urea]",1.7 nM,> 1560 nM,1.1 nM,> 1560 nM,49 nM,81 nM,"−ve (−ve and +ve indicate that the value is below and above respectively, the no significant effect threshold, defined as 30% inhibition at 1 μg/mL at the time point indicated.)","−ve (−ve and +ve indicate that the value is below and above respectively, the no significant effect threshold, defined as 30% inhibition at 1 μg/mL at the time point indicated.)",0.6 nM,100%,,,
"COc1ccc(-n2nc(C(C)(C)C)cc2NC(=O)Nc2ccc(Oc3ccnc(Nc4ccc5[nH]ncc5c4)n3)c3ccccc23)cn1 [Example 13, 1-(4-((2-((1H-Indazol-5-yl)amino)pyrimidin-4-yl)oxy)naphthalen-1-yl)-3-(3-(tert-butyl)-1-(6-methoxypyridin-3-yl)-1H-pyrazol-5-yl)urea]",0.5 nM,> 1560 nM,1.6 nM,3 nM,8 nM,30 nM,"−ve (−ve and +ve indicate that the value is below and above respectively, the no significant effect threshold, defined as 30% inhibition at 1 μg/mL at the time point indicated.)","−ve (−ve and +ve indicate that the value is below and above respectively, the no significant effect threshold, defined as 30% inhibition at 1 μg/mL at the time point indicated.)",2.4 nM,,50%,8.5 ± 1.4 ×10^5/mL,
